Laboratory results published in patent US20250249110A1, “ANTIMICROBIAL PEPTIDE DERIVATIVE AND USE THEREOF” (SICHUAN UNIVERSITY, priority 2016, published 2025).
Where no end group is shown, it is not given here.

Columns and labels:
[1] = test system: Staphylococcus aureus 33591; assay: Intra-abdominally infected mouse model; type: in vivo; conditions: intravenous administration; DP7-C 1 mg/kg, VAN 20 mg/kg; vs NS group, p<0.01
Method: The anti-infection activity of DP7-C is determined by the intra-abdominally infected models. […]
The experimental steps are as follows: • (1) Activate Staphylococcus aureus 33591 with MHB the day before the experiment, wash the activated strains twice with normal saline on the day of the experiment, and determine the concentration of bacterial liquid for later use. • (2) To establish an abdominally infected mouse model, intraperitoneally inject the bacterial solution of 1.5×10^8 cfu/0.5 mL into each mouse. • (3) Intravenously inject the drug by group after one hour of infection, 0.1 mL/mouse. • (4) 24 h later, intraperitoneally inject 5 mL of normal saline into the mouse, gently massage the abdomen, kill the mouse and disinfect with 75% alcohol. After 5 min, scissor the abdominal cavity epithelium, make a small opening in the abdominal cavity, draw ascites as much as possible from the opening with a 1 ml syringe, and then transfer to a sterile EP tube for mixing. • (5) Dilute with normal saline at a dilution of, for example, 10×, 100×, 1000× and 10000×; take three bacterial solutions with suitable concentrations, 20 μL each, coat the MHA plate and incubate in a bacteria incubator overnight. • (6) Select a plate with 20-200 colonies and convert and calculate the amount of bacteria per milliliter in 5 milliliters of ascites.

[2] = test system: red blood cells; conditions: cited from earlier work
[3] = test system: staphylococcus aureus; conditions: background statement; cited from earlier work
[4] = test system: red blood cells; assay: Hemolysis test in vitro; type: cell-based, human (healthy volunteers); conditions: FIG. 5B
Method: In the hemolysis test, DP7 and DP7-C at the same concentration were detected for the hemolysis of red blood cells. • 1. Take the blood of healthy volunteers and put into an anticoagulant tube and gently mix. • 2. Take out the anticoagulant, add isometric physiological saline, mix slowly and evenly, centrifuge at 400×g for 10 min, and discard the supernatant. • 3. Slowly mix the red blood cells and wash with PBS, centrifuge at 400×g for 10 min, discard the supernatant, and wash the cell precipitate with PBS for three times. • 4. Dilute with PBS to obtain 20% (v/v) red blood cell solution, which can be used immediately or stored at 4° C. for about 2 weeks (without hemolysis). • 5. Dilute the drug into a series of concentration gradients with PBS, add 100 μL of drug into a 96-well plate, take 100 μL of 2% Twain 20 as the positive control, add 100 μL of PBS to the negative control. Repeat the process 3 times for each concentration of drug. • 6. Dilute 20% (v/v) of red blood cell solution with PBS according to the volume ratio of 1:20, mix evenly and add to a 96-well plate, with the drug concentration of 100, 200, 400, 600, 800, 1000, 1200, 1600 μg/mL respectively, and incubate at 37° C. for 1 h. • 7. Incubate the mixture of drugs and red blood cells, centrifuge at 900×g for 10 min, add 160 μL of the supernatant to a new 96-well plate, and read the absorbance value at OD 450 nm. • 8. According to the absorbance value of A450, calculate the percentage of hemolysis corresponding to each concentration of drugs.
The calculation formula of the percentage of hemolysis is: […]

Compound | average colony forming unit (CFU) of Staphylococcus aureus [1] | lethality ([2]; high concentration, intravenous injection) | hemolysis of red blood cells ([2]; mouse, in vivo, iv) | therapeutic effect in vivo [3] | appearance of hemolysis test [4]
CN[C@H](CC(C)C)C(=O)N[C@H]1C(=O)N[C@@H](CC(N)=O)C(=O)N[C@H]2C(=O)N[C@H]3C(=O)N[C@H](C(=O)N[C@H](C(=O)O)c4cc(O)cc(O)c4-c4cc3ccc4O)[C@H](O)c3ccc(c(Cl)c3)Oc3cc2cc(c3O[C@@H]2O[C@H](CO)[C@@H](O)[C@H](O)[C@H]2O[C@H]2C[C@](C)(N)[C@H](O)[C@H](C)O2)Oc2ccc(cc2Cl)[C@H]1O [VAN, Vancomycin, reference compound] | significantly lower than those in NS group | – | – | – | –
VQWRIRVAVIRK-NH2 [DP7, VQWRIRVAVIRK-NH2] | – | kill mice | cause hemolysis of red blood cells | very good therapeutic effect | red blood cells are lysed
